Values quoted from earlier work, collected in patent publication US20140127295A1, “COMPOSITIONS, PROCESS OF PREPARATION OF SAID COMPOSITIONS AND METHOD OF TREATING INFLAMMATORY DISEASES” (priority 2011, published 2014).

Tests used:
[1] = in vivo
[2] = in mice

Row | Compound | Tmax [1] [h] | Cmax [1] [µg/mL] | T½ [1] [h] | maximum tolerated dose [2] [mg/kg]
1 | CCC(C)(C)C(=O)O[C@H]1C[C@@H](C)C=C2C=C[C@H](C)[C@H](CC[C@@H]3C[C@@H](O)CC(=O)O3)[C@H]21 [CW302, (1S,3R,7S,8S,8aR)-8-{2-[(4R)-4-hydroxy-6-oxooxan-2-yl]ethyl}-3,7-dimethyl-1,2,3,7,8,8a-hexahydronaphthalen-1-yl 2,2-dimethylbutanoate] | 1.9 | – | – | –
2 | CCCc1nn(C)c2c(=O)[nH]c(-c3cc(S(=O)(=O)N4CCN(C)CC4)ccc3OCC)nc12 [CW305, 5-[2-ethoxy-5-(4-methylpiperazine-1-sulfonyl)phenyl]-1-methyl-3-propyl-1H,4H,7H-pyrazolo[4,3-d]pyrimidin-7-one] | 1 | 0.44 | 4 to 5 | 8.5
